Experimental findings from patent EP3468532B1, “DISPENSING DEVICE AND PHARMACEUTICAL COMPOSITION FOR THE TREATMENT OF RHINITIS” (Glenmark Specialty S.A., priority 2017, dated 2019) are described below.

The structures appear in SMILES notation. Like-named read-outs stand apart in the source and are kept apart here.

The conditions of data set [1]: human, in vivo. The protocol:
The pharmacokinetics of olopatadine in a fixed dose combination of mometasone furoate and olopatadine hydrochloride nasal spray was evaluated in a clinical trial. The clinical trial was a randomized, single-center, single-dose, open-label, three-period, six-sequence, cross-over study to evaluate three treatments administered as a nasal spray. The three treatments included a combination of mometasone furoate and olopatadine hydrochloride nasal spray, olopatadine hydrochloride nasal spray and PATANASE® nasal spray.
(§1) The study consisted of a screening visit, 3 single-dose treatment periods with washout periods of 7 to 14 days between dosing in each treatment period, an early withdrawal visit if applicable, and a follow-up telephone call (or visit) 1 to 7 days after completing the third treatment period.
(§2) A total of 30 subjects were randomized to 1 of 6 treatment sequences and received at least 1 dose of study drug. All 30 subjects were included in the safety analysis set and the pharmacokinetic subset. All but 2 subjects completed the study per protocol.

Data set [2] in a line: Example 7: Phase III clinical study, plasma pharmacokinetics of TP-1. Type of data set: in vivo, human. The conditions noted are these: for AUC / Cmax / Tmax: human, plasma; for Tmax: read-out: Tmax, Median (range). An excerpt:
This study consisted of four visits to the study site. After the initial screening visit (Visit 1), subjects who met all study selection criteria were required to undergo a single-blind placebo run-in period for 7-10 days. Following the completion of the run-in period, eligible subjects meeting the randomization criteria were enrolled and randomized to one of the four treatment arms. Subjects were dispensed medication as per the randomization list. Randomized subjects were required to undergo a 2 week (14 days) treatment period as per the protocol to assess the efficacy and safety of the assigned treatment. Subjects were instructed to record the symptom scores in a symptom assessment diary. They were also scheduled to have at least two blood samples for PK assessment during the treatment period.
• Plasma PK: Maximum plasma concentration (Cmax), time to attain Cmax (Tmax), and area under the plasma concentration-time curve over the dosing interval (AUCtau) will be estimated for mometasone furoate and olopatadine on Day 1 and Day 8 based on the pharmacokinetic analysis set (PKAS).
The pharmacokinetics (PK) of TP-1 were measured for a subset of patients in the phase III clinical study on day 1 and day 8 (steady state).

The nature of data set [3]: Example 11: single-dose cross-over study, pharmacokinetics of mometasone furoate. Type of data set: in vivo, human. As for the experimental part:
The pharmacokinetics of mometasone furoate in a fixed dose combination of mometasone furoate and olopatadine hydrochloride nasal spray was evaluated in a clinical trial. The clinical trial was a randomized, single-center, single-dose, open-label, three-period, six-sequence, cross-over study to evaluate three treatments administered by nasal spray. The three treatments included a combination of mometasone furoate and olopatadine hydrochloride nasal spray, mometasone furoate nasal spray and Nasonex® nasal spray.
as §1, §2

Where [4] appears, read: patients receiving TP-1, Day 8 (steady state).
[5] abbreviates: human, in vivo, inhaled or intranasal, mometasone furoate in fixed dose combination nasal spray, single dose.

For `CN(C)CC/C=C1/c2ccccc2COc2ccc(CC(=O)O)cc21` [Olopatadine], the “Quantifiable concentrations observed until the last time point” value in data set [1] came to 48 h. In addition, the AUC in data set [2] (olopatadine in plasma, patients receiving TP-1, Day 1, read-out: AUCtau, Geo Mean (Geo CV%)) was 72.9 ng·h/mL; in data set [2] (olopatadine in plasma, patients receiving TP-1, Day 1, read-out: AUCtau, Mean (SD)) it was 75.5 ng·h/mL; in data set [2] (olopatadine in plasma, patients receiving TP-1, Day 1, read-out: AUCtau, Min-Max), 39.3 to 117 ng·h/mL; in data set [2] (olopatadine in plasma, patients receiving TP-1, Day 8 (steady state), read-out: AUCtau, Geo Mean (Geo CV%)) it was 85.7 ng·h/mL; in data set [2] (olopatadine in plasma, patients receiving TP-1, Day 8 (steady state), read-out: AUCtau, Mean (SD)), 88.8 ng·h/mL; in data set [2] (olopatadine in plasma, patients receiving TP-1, Day 8 (steady state), read-out: AUCtau, Min-Max), 53.4 to 138 ng·h/mL. For the same compound, the Cmax in data set [2] (olopatadine in plasma, patients receiving TP-1, Day 1, read-out: Cmax, Geo Mean (Geo CV%)) is 18.8 ng/mL; in data set [2] (olopatadine in plasma, patients receiving TP-1, Day 1, read-out: Cmax, Mean (SD)), 19.8 ng/mL; in data set [2] (olopatadine in plasma, patients receiving TP-1, Day 1, read-out: Cmax, Min-Max) it was 8.7 to 31.6 ng/mL; in data set [2] (olopatadine in plasma, patients receiving TP-1, Day 8 (steady state), read-out: Cmax, Geo Mean (Geo CV%)), 18.7 ng/mL; in data set [2] (olopatadine in plasma, patients receiving TP-1, Day 8 (steady state), read-out: Cmax, Mean (SD)) it was 19.8 ng/mL; in data set [2] (olopatadine in plasma, patients receiving TP-1, Day 8 (steady state), read-out: Cmax, Min-Max), 9.67 to 37.3 ng/mL. The Tmax in data set [2] (patients receiving TP-1, Day 1) was 1 h. Besides, in data set [2] (setting [4]), the “Tmax, Median (range)” value was 1.00 (0.25-2) hour.
`C[C@@H]1C[C@H]2[C@@H]3CCC4=CC(=O)C=C[C@]4(C)[C@@]3(Cl)[C@@H](O)C[C@]2(C)[C@@]1(OC(=O)c1ccco1)C(=O)CCl` [Mometasone furoate]: the AUC(0-t) in data set [3] (setting [5]) stood at 0.085 ng·h/mL. The Cmax in data set [3] (setting [5]) is 0.0108 ng/mL; in data set [2] (mometasone furoate in plasma, patients receiving TP-1, Day 1, read-out: Cmax, Geo Mean (Geo CV%)), 0.00627 ng/mL; in data set [2] (mometasone furoate in plasma, patients receiving TP-1, Day 1, read-out: Cmax, Mean (SD)), 0.00678 ng/mL; in data set [2] (mometasone furoate in plasma, patients receiving TP-1, Day 1, read-out: Cmax, Min-Max), 0.00267 to 0.0128 ng/mL; in data set [2] (mometasone furoate in plasma, patients receiving TP-1, Day 8 (steady state), read-out: Cmax, Geo Mean (Geo CV%)), 0.00917 ng/mL; in data set [2] (mometasone furoate in plasma, patients receiving TP-1, Day 8 (steady state), read-out: Cmax, Mean (SD)), 0.00992 ng/mL. The Cmax in data set [2] (mometasone furoate in plasma, patients receiving TP-1, Day 8 (steady state), read-out: Cmax, Min-Max) fell in the range of 0.00358 to 0.0161 ng/mL. For the same compound, the Tmax in data set [3] (setting [5]) amounted to 1 h; in data set [2] (patients receiving TP-1, Day 1) it was 1 h. Also, the AUC(0-inf) in data set [3] (human, in vivo, inhaled or intranasal, mometasone furoate in fixed dose combination nasal spray, single dose, read-out: AUC(0-infinity)) came out at 0.104 ng·h/mL. For the same compound, the “Quantifiable concentrations observed until the last time point” value in data set [3] (single dose nasal spray) worked out at 72 h. The AUC in data set [2] (mometasone furoate in plasma, patients receiving TP-1, Day 1, read-out: AUCtau, Geo Mean (Geo CV%)) is 0.0262 ng·h/mL; in data set [2] (mometasone furoate in plasma, patients receiving TP-1, Day 1, read-out: AUCtau, Mean (SD)), 0.0286 ng·h/mL; in data set [2] (mometasone furoate in plasma, patients receiving TP-1, Day 1, read-out: AUCtau, Min-Max), 0.0121 to 0.0725 ng·h/mL; in data set [2] (mometasone furoate in plasma, patients receiving TP-1, Day 8 (steady state), read-out: AUCtau, Geo Mean (Geo CV%)), 0.0527 ng·h/mL; in data set [2] (mometasone furoate in plasma, patients receiving TP-1, Day 8 (steady state), read-out: AUCtau, Mean (SD)) it was 0.0584 ng·h/mL; in data set [2] (mometasone furoate in plasma, patients receiving TP-1, Day 8 (steady state), read-out: AUCtau, Min-Max), 0.0257 to 0.124 ng·h/mL. Further, in data set [2] (setting [4]), the “Tmax, Median (range)” value is 1.00 (0.25-2) hour.

As usually defined, the Cmax is the maximum level reached in the sampled fluid or tissue. One may read the Tmax as the time from dosing to the highest level. The AUC(0-t) is the area under the concentration-time curve up to a stated or last time point.
